Experimental findings from patent US5627194A, “Anti-viral guanidino-substituted compounds” (Allelix Biopharmaceuticals Inc., priority 1994, dated 1997) are described below.

What is called IC50 is the concentration needed to halve the response being measured. A low value points to greater potency in that assay.

For series [1], the system named is herpesvirus. The series is classed as cell-based. The procedure: The therapeutic index of this compound, i.e. the ratio of its cytotoxicity to its viral toxicity, was determined to be 12.29. The following table illustrates results obtained in inhibition and cytotoxicity studies of herpesvirus replication by the compounds exemplified.
Series [2] deals with herpesvirus. In words: Inhibition studies of herpesvirus replication by the compounds exemplified. In kind it is cell-based. The following applies: summary table, read-out: ED50 (the source's name). Here is the method:
(§1) The following procedures were then used to determine inhibitory effects of the compound of example 1 on the replication of HSV-1, strain F. First, confluent monolayers of the African green monkey kidney cell line, Vero (ATCC 733-VR CCL 81) in 24 well cell culture plates were pretreated with specified concentrations (0 μM, 0.5 μM, 1 μM, 5 μM, 10 μM, 20 μM and 50 μM) of ALX-19 at 37° C., 5% CO2 for 24 hours. This was accomplished by diluting the stock solution of the test compound in growth medium (10% fetal bovine serum, 100 IU/ml penicillin, 100 μg/ml streptomycin and 0.02 mg/ml gentamicin in Dulbecco's MEM (DMEM)) used to overlay the monolayers.
(§2) After pretreatment with the test compound, the monolayers were overlaid with 0.1 ml of diluted virus stock at about 20 pfu/well. Virus was then allowed to absorb for 1 hours at 37° C. The virus inoculum was removed and the monolayers were overlaid with DMEM containing 2% FBS and the specified concentrations of the test compound. Virus was next allowed to replicate for 48 hours and then the monolayers were fixed and stained with a solution of 1% crystal violet in 70% ethanol:formalin:acetic acid (20:2:1). Finally, plaques (each representing a single infectious virus particule or plaque forming unit (PFU) were counted and checked microscopically. The results were as follows:
A procedure similar to that described in Example 3 was conducted to determine the anti-viral activity of the compound of example 2. In the case, however, the concentrations of the test compound used to pretreat the MRC-5 cells were 0 μM, 1 μM, 10 μM, 100 μM and 500 μM, respectively. The following results were obtain on infection and incubation of the treated cells:
The following table illustrates results obtained in inhibition and cytotoxicity studies of herpesvirus replication by the compounds exemplified.

The next series deals with HSV-1, strain F. The experiment in a line: Plaque reduction assay, inhibition of HSV-1 strain F replication by the compound of example 1 (Vero cells). In kind it is cell-based, herpes simplex virus type 1. The conditions noted are these: for Plaque number: Vero, 24 h pretreatment, 48 h, untreated 19.
Excerpt: (§3) The present invention provides novel di-guanidino-substituted compounds having anti-herpesvirus activity. The term "anti-herpesvirus" as used herein refers to those compounds which inhibit replication of a member of the herpesvirus family as determined by conventional cell culture assay, such as the well established plaque reduction assay. In the context of the plaque reduction assay, for example, the anti-herpesvirus nature of a compound in accordance with the present invention is indicated by a reduction in plaque count, or a reduction in plaque size, following treatment of virally infected cells with the given compound, relative to a virally infected, untreated control.
The compound of example 1 was formulated as a 10 mM stock in water for in vitro and cell culture procedures. The stock was then diluted into buffers used for specific assays, or into cell culture media.
as §1
as §2, with “follows: […]” for “follows:”
On the technique in general: Plaques are areas of infected cells; plaque reduction assays count them against a control.

The subject of the next series is herpes simplex virus. The experiment in a line: Plaque reduction assay, inhibition of herpesvirus replication by the compound of example 2 (MRC-5 cells). In kind it is cell-based. The conditions noted are these: for Plaque number: untreated 19.
Excerpt: as §3, §1, §2
A procedure similar to that described in Example 3 was conducted to determine the anti-viral activity of the compound of example 2. In the case, however, the concentrations of the test compound used to pretreat the MRC-5 cells were 0 μM, 1 μM, 10 μM, 100 μM and 500 μM, respectively. The following results were obtain on infection and incubation of the treated cells: […]

Compound `COC1CC[C@H](OCCCNC(=N)N)[C@@H](COCCCNC(=N)N)O1` (stereo partly drawn) [Example 1, Methyl-4,6-di-O-propylguanidine-2,3-dideoxy-α,β-D-erythro-hexoside] displayed a TI in the series with herpesvirus [1] of 12.29. Further, the “therapeutic index, ratio of cytotoxicity to viral toxicity” value in the series with herpesvirus [1] is on record as 12.29. Moreover, the EC50 in the series with herpesvirus [2] is 2.6 µM. In addition, the Plaque number in the series on HSV-1, strain F (0.5 μM, HSV-1 strain F) is 18; with HSV-1, strain F (1 μM, HSV-1 strain F) it was 16; with HSV-1, strain F (5 μM, HSV-1 strain F) it was 6; in the series on HSV-1, strain F (10 μM, HSV-1 strain F), 4; with HSV-1, strain F (20 μM, HSV-1 strain F) it was 1. Moreover, the IC50 in the series on HSV-1, strain F (Human alphaherpesvirus 1, HSV-1 strain F, Vero cells, plaque reduction) worked out at 2.6 µM. The “reduction in the replication of herpes simplex virus” value in the series on HSV-1, strain F (concentration of more than 1 μM) is reported as “significant reduction”.
`N=C(N)NCCCOC[C@H]1OC(OCCCNC(=N)N)CC[C@@H]1OCCCNC(=N)N` (stereo partly drawn) [Example 2, 1,4,6-tri-O-propylguanidine-2,3-dideoxy-hexoside]: the Plaque number in the series with herpes simplex virus (0.5 μM, MRC-5 cells) amounted to 18; in the series with herpes simplex virus (1 μM, MRC-5 cells), 16; with herpes simplex virus (5 μM, MRC-5 cells), 11; in the series with herpes simplex virus (10 μM, MRC-5 cells) it was 9; in the series on herpes simplex virus (20 μM, MRC-5 cells), 6; with herpes simplex virus (50 μM, MRC-5 cells), 5. The EC50 in the series on herpes simplex virus (MRC5, MRC-5 cells, plaque reduction, read-out: ED50 (the source's name)) was determined as 10.5 µM; with herpesvirus [2] it was 10.5 µM. The “reduction in the replication of herpes simplex virus” value in the series on herpes simplex virus (concentration of 1 μM or more) is listed as “significant reduction”. The same compound came in with a TI with herpesvirus [1] of over 50. Moreover, in the series with herpesvirus [1], the “therapeutic index, ratio of cytotoxicity to viral toxicity” value is reported as over 50.
`CCOC1CC[C@H](OCCCNC(=N)N)[C@@H](COCCCNC(=N)N)O1` (stereo partly drawn) [Example 5, ethyl-4,6-di-O-propylguanidine-2,3-dideoxy-hexoside] displayed a TI in the series with herpesvirus [1] of 9.96. Moreover, the EC50 in the series with herpesvirus [2] is 2.5 µM.
For `CCOC1CC[C@H](OCCCCCNC(=N)N)[C@@H](COCCCCCNC(=N)N)O1` (stereo partly drawn) [Example 6, ethyl-4,6-di-O-pentylguanidine-2,3-dideoxy-hexoside] the same measures were 17.28 and 9.3 µM.
The matching figures for `CC(C)OC1CC[C@H](OCCCCCNC(=N)N)[C@@H](COCCCCCNC(=N)N)O1` (stereo partly drawn) [Example 7, isopropyl-4,6-di-O-pentylguanidine-2,3-dideoxy-D-erythro-hexoside]: 5.17 and 6.45 µM.
With `CCOCCOCCOC1CC[C@H](OCCCNC(=N)N)[C@@H](COCCCNC(=N)N)O1` (stereo partly drawn) [Example 8, (ethoxy-ethoxy-ethyl)-4,6-di-O-propylguanidine-2,3-dideoxy-d-erythrohexoside], the TI in the series with herpesvirus [1] is listed as over 20. In addition, in the series on herpesvirus [2], the EC50 came to 10 µM.
The matching figures for `N=C(N)NCCCOC[C@H]1OCCC[C@@H]1OCCCNC(=N)N` [Example 9, 4,6-di-O-propylguanidine-3-deoxy dihydro-D-glucal]: ~ 350 and about 50 µM.
The matching figures for `N=C(N)NCCCOC[C@H]1OC(OCCO)CC[C@@H]1OCCCNC(=N)N` (stereo partly drawn) [Example 10, hydroxyethyl-4,6-di-O-propylguanidine-2,3-dideoxy-hexoside]: 31.22 and 10.8 µM.
